Results on 52 compounds are retold here after PubChem BioAssay AID1996.

Converted amounts (≈) assume the structure as drawn.

For the series the following is noted: buffer; pH 7.4; 200.0 µM.
For `O=C(NCc1cccnc1)Nc1ccc(Br)cc1`, the solubility (kinetic) is more than 45.9 µg/mL. The same measure for `CCCCCC#CCN1CCN(C23CC4CC(CC(C4)C2)C3)CC1`: 42.8 µg/mL (≈ 130 µM). The same measure for `Cn1ccsc1=NC(=O)c1cccc(C#N)c1`: more than 36.5 µg/mL; for `Cc1cccc2cc(CNC3CCCC3)c(Cl)nc12`: more than 41.2 µg/mL. `Cc1ccc(N(Cc2cc(=O)[nH]c3ccccc23)C(=O)C(C)C)cc1`: the kinetic solubility was 47.5 µg/mL (≈ 142 µM). The same measure for `OC(CNCC1COc2ccccc2O1)COc1ccccc1F` (configuration not stated): more than 50 µg/mL; for `CCc1cccc(CC)c1NC(=O)CSc1nnc(C2CC2)n1C`: more than 51.7 µg/mL; for `O=C(c1ccccc1)C(Nc1ccccn1)c1ccccc1` (configuration not stated): 27.8 µg/mL (≈ 96.4 µM). For `COc1ccc(C(=O)CNc2ccccc2Br)cc1` the value was 5.6 µg/mL (≈ 17.5 µM); for `O=c1[nH]c(SCc2cccc(F)c2)nc2ccccc12`, less than 0.3 µg/mL; for `O=C(NCC1CCCCC1)c1ccc(Br)o1`, more than 42.9 µg/mL.

Consider `CCOC(=O)C1CCN(C(=S)NC(=O)c2cccs2)CC1`, for which the kinetic solubility is more than 49 µg/mL. For `O=C(NCCCN1CCOCC1)C1CC(=O)N(c2ccccc2)C1` (configuration not stated) the value was more than 49.7 µg/mL; for `Clc1ccc(-c2cn3cc(Cl)ccc3n2)cc1`, less than 0.3 µg/mL; for `Cc1ccc(NC(=O)NC2CCCc3ccccc32)cc1` (configuration not stated), less than 0.3 µg/mL. `CCOC(=O)/C(C#N)=C/C=C1\C=Cc2ccccc2N1CC`: the solubility (kinetic) amounted to 0.7 µg/mL (≈ 2.38 µM). The same measure for `O=C(O)CN(C1CCCCC1)S(=O)(=O)c1ccc(F)cc1`: more than 47.3 µg/mL. The same measure for `O=C(CCn1c(=S)oc2ccccc21)Nc1cccc(O)c1`: 8.6 µg/mL (≈ 27.4 µM); for `Cc1cc(C)cc(N2C(=O)C3CCCN3C2=S)c1` (configuration not stated): more than 39.1 µg/mL. Consider `COc1cccc(C(=O)Nc2ccc(NC(=O)C3CCCCC3)nc2)c1`, for which the kinetic solubility amounted to 2 µg/mL (≈ 5.66 µM). For `COC(OC)C(C)NC(=O)NC(=O)c1ccccc1Cl` (configuration not stated) the value was 39.2 µg/mL (≈ 130 µM); for `Cc1cccc(S(=O)(=O)Nc2ccc(S(=O)(=O)Nc3nccs3)cc2)c1`, more than 61.4 µg/mL; for `Cc1cccc(N(Cc2cc3ccccc3[nH]c2=O)C(=O)c2cccs2)c1`, less than 0.4 µg/mL. `COCCN(C(=O)COC(=O)/C=C/c1cccc(C(F)(F)F)c1)c1c(N)n(CC(C)C)c(=O)[nH]c1=O` registered a kinetic solubility of 5.7 µg/mL (≈ 11.1 µM). The same measure for `CC(C)(CNC(=O)Cc1ccc(Cl)cc1Cl)N1CCCCC1`: more than 51.5 µg/mL.

The compound `O=C(NCc1ccccc1)N1CCN(c2ccccc2)CC1` returned a solubility (kinetic) of 16.2 µg/mL (≈ 54.8 µM).

`Cc1cccc(C(=O)OC(C)CN2C(C)CCCC2C)c1.Cl` (configuration not stated) had a kinetic solubility of more than 48.9 µg/mL. For `CSCCC(NS(=O)(=O)/C=C/c1ccccc1)C(=O)O` (configuration not stated) the value was more than 47.3 µg/mL.

On to `Cc1ccsc1C(=O)OCC(=O)N1CC(C)CC(C)C1` (configuration not stated), for which the solubility (kinetic) is more than 44.3 µg/mL. For `O=C(COc1ccc(Cl)cc1[N+](=O)[O-])N1CCCCCC1` the value was more than 46.9 µg/mL; for `CC(=O)N1CCN(C(=O)CCC(=O)O)CC1`, 30.9 µg/mL (≈ 135 µM). For `O=C(COC(=O)c1ccccc1)NC1CCCCCC1`, the solubility (kinetic) worked out at 39.7 µg/mL (≈ 144 µM). Turning to `N#Cc1cc([N+](=O)[O-])ccc1NC(=O)COC(=O)c1cnccn1`, the solubility (kinetic) is more than 49.1 µg/mL. The compound `Cc1nc2ccc(OC(=O)c3ccccc3)cc2s1` returned a solubility (kinetic) of 2.9 µg/mL (≈ 10.8 µM). `CCOC(=O)c1c(NC(=O)COC(=O)C2CC2C)sc(C)c1C` (configuration not stated): the kinetic solubility was less than 0.7 µg/mL. For the compound `Cc1ccc(C(=O)C[n+]2cccc3cc(C)ccc32)cc1.[Br-]`, the solubility (kinetic) came to 43.8 µg/mL. The same measure for `COc1cc(Cl)cc(/C=C/c2ccc3cccc(O)c3n2)c1OC`: less than 0.7 µg/mL; for `COc1cc2c(cc1OC)C(C(=O)NC(C)C)C1CCCCN1C2=O` (configuration not stated): more than 52 µg/mL. For `COc1cccc(C(=O)N(Cc2cccs2)C2CCS(=O)(=O)C2)c1` (configuration not stated) the value was more than 54.8 µg/mL; for `COc1ccc(OCCCn2ccnc2)cc1.Cl`, 36 µg/mL; for `O=C(Cc1ccc(Br)cc1)NC1CCCc2ccccc21` (configuration not stated), 1.5 µg/mL (≈ 4.36 µM). For `CC(C)CCC(C)NC(=O)Cc1ccc(S(=O)(=O)N2CCOCC2)s1` (configuration not stated) the value was 47 µg/mL (≈ 121 µM); for `COc1ccc(NC(=O)C(=S)NC2CCCCC2)cc1`, less than 0.3 µg/mL; for `COc1ccc(-n2cc(-c3ccccc3)[nH]c2=S)c(OC)c1`, 3.3 µg/mL (≈ 10.6 µM). Regarding `Cc1cc(C)c2oc(=O)cc(CN3CCC(C)CC3)c2c1`, the kinetic solubility was 4.1 µg/mL (≈ 14.4 µM). This solubility kinetic and that of the compound before are within 1.5-fold of each other.

For `CCN(CC(=O)Nc1ccccc1OC)Cc1csc(CC(=O)Nc2ccc(C)cc2)n1`, the kinetic solubility amounted to 19 µg/mL (≈ 42 µM). In the case of `Cc1ccc(CNS(=O)(=O)c2ccc(F)c(F)c2)n1C`, the kinetic solubility was more than 45 µg/mL. The same measure for `COC(=O)c1cc(NC(=O)c2cccs2)ccc1N1CCOCC1`: 43.5 µg/mL (≈ 126 µM); for `CNC(=O)c1ccccc1-c1cn(C)c2ccccc2c1=O`: more than 43.9 µg/mL; for `Cc1ccc(S(=O)(=O)NC(C)C(=O)NC2CC2)cc1` (configuration not stated): 41 µg/mL (≈ 145 µM). The same measure for `CC(=O)Nc1cccc(OCCCNS(=O)(=O)c2ccc(C#N)cc2)c1`: more than 56 µg/mL; for `CC(Cl)C(=O)Nc1c2c(nn1-c1ccccc1)CSC2` (configuration not stated): more than 46.2 µg/mL.
